Reference: US20190352276A1, “INHIBITORS OF BRUTON'S TYROSINE KINASE” (Joint Stock Company "Biocad", priority 2016, published 2019)
pIC50: −log10 of the molar value. Read-outs that look alike come from different tables or passages of the source.

Tests used:
[1] = test system: Z-138 (mantle cell lymphoma); test: Antiproliferative activity, Z-138 cells (Alamar Blue); type: cell-based; details: Homo sapiens
Method in brief: (§1)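 Cells grown in RPMI-1640 with 10% FBS and gentamicin, seeded ~3*10^4 cells/well, then exposed to compounds (DMSO <1% final) for 72 h at 37 °C, 5% CO2. Viability by Alamar Blue after 14-16 h, fluorescence Ex 540/Em 590 nm; IC50 from four-parameter logistic fit.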

[2] = target: T1, recombinant Btk kinase enzyme (Homo sapiens, UniProt Q06187); test: In vitro inhibition of Btk kinase activity (ADP-Glo); type: biochemical; details: read-out: IC50 kinase BTK
T1 construct: purchased SignalChem B10-10H
Method in brief: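 Recombinant human Btk phosphorylating Poly(Glu,Tyr 4:1) substrate (0.5 mg/mL) with 50 μM ATP, 180 min at 37° C., in presence of inhibitor. ADP formed detected by ADP-Glo luminescence; IC50 from four-parameter logistic fit.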

[3] = test system: DOHH2 (follicular lymphoma); test: Antiproliferative activity, DOHH2 cells (Alamar Blue); type: cell-based; details: Homo sapiens, DOHH-2, Table 10, 72 h, average of several tests
Method in brief: as §1

[4] = General cytotoxicity on HepG2 cells (CC50; therapeutic index CC50 HepG2/IC50 Mino); type: cell-based; details: human, HepG2 cells (hepatocellular carcinoma), 72 hours, Alamar Blue
Method in brief: (§2)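 Cells seeded at 2*10^4 per well in DMEM, compounds added after 24 h at 200 μM to 4 μM final and incubated 72 h. Viability read with Alamar Blue to derive CC50; therapeutic index is CC50 (HepG2) divided by IC50 (Mino).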

[5] = test system: HepG2 cells (hepatocellular carcinoma); test: as above; type: cell-based; details: therapeutic index
Method in brief: as §2

[6] = Permeability through the monolayer of Caco-2 cells; type: in vitro ADME; details: human; for Papp A→B at 2 h, 10 μM / Papp B→A at 2 h, 10 μM: 2 h at 37° C.; for efflux ratio at 2 h, 10 μM: read-out: efflux (Papp B-A/Papp A-B)
Method in brief: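 Caco-2 monolayers grown 21 days on 0.4 μm transwell filters, integrity checked with Lucifer Yellow. Compounds at 10 μM were added apically at pH 6.5 (A→B) or basolaterally at pH 7.4 with 1% BSA (B→A) and sampled after 2 h. Concentrations by HPLC; Papp calculated, efflux ratio as Papp B-A/Papp A-B.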

[7] = Table 10, 72 h, average of several tests
[8] = Table 10, average of several tests

T1 sequence (Q06187 whole entry): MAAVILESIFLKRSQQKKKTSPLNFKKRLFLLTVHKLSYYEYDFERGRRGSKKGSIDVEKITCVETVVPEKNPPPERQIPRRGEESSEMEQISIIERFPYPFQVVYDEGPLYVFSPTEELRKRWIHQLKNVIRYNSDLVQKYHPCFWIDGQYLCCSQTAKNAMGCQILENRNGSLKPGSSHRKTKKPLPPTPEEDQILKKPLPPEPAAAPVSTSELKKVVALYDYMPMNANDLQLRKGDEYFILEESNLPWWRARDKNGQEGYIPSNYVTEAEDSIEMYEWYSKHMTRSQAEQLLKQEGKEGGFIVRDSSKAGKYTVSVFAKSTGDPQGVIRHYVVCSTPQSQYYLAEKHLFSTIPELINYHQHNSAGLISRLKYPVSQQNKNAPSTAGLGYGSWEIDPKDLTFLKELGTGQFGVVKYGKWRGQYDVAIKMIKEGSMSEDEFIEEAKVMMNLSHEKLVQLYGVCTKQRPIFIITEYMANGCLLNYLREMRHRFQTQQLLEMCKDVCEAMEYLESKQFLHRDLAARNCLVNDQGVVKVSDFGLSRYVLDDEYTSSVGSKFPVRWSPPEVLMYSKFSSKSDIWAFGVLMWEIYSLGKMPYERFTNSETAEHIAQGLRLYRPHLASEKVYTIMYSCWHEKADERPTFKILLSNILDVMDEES

pIC50 [1, 7] | pIC50 ([2]; Table 8, ADP-Glo) | pIC50 [3] | pIC50 ([1]; Table 11, 72 h) | pIC50 ([2]; Table 9 kinase panel) | Papp A→B at 2 h, 10 μM [6] [×10⁻⁶ cm/s] | Papp B→A at 2 h, 10 μM [6] [×10⁻⁶ cm/s] | efflux ratio at 2 h, 10 μM [6] | Structure (SMILES) | CC50 at 72 h [4, 8] [µM] | CC50 (HepG2)/IC50 (Mino) ([5]; Table 10) | CC50 at 72 h ([4]; Table 11) [µM] | CC50 (HepG2)/IC50 (Mino) ([5]; Table 11)
5.18 | 7.72 | 5.10 |  |  |  |  |  | C=CC(=O)N1CCC[C@@H](n2nc(-c3ccc(C(=O)Nc4ccccn4)cc3)c3cncc(Cl)c32)C1 [BCD-BTK-201] | > 50 | >4.20 |  | 
4.78 | 8.75 | 5.08 |  |  |  |  |  | C=CC(=O)N1CCC[C@@H](n2nc(-c3ccc(C(=O)Nc4ccccn4)cc3)c3c(N)nccc32)C1 [BCD-BTK-242, (R)-4-(1-(1-acryloylpiperidin-3-yl)-4-amino-1H-pyrazolo[4,3-c]pyridin-3-yl)-N-(pyridin-2-yl)benzamide] | 52.5 | 3.03 |  | 
4.45 | 8.93 | 4.82 |  |  |  |  |  | C=CC(=O)N1CCC[C@@H](n2nc(-c3ccc(C(=O)Nc4ncccc4F)cc3)c3c(N)ncc(C#N)c32)C1 [BCD-BTK-258, 4-{4-amino-7-cyano-1-[(3R)-1-(prop-2-enoyl)piperidin-3-yl]-1H-pyrazolo[4,3-c]pyridin-3-yl}-N-(3-fluoropyridin-2-yl)benzamide] | > 50 | >2.89 |  | 
 |  |  | 4.84 | 6.96 | 21 | 13.2 | 0.6 | C=CC(=O)N1CCC[C@@H](n2nc(-c3ccc(Oc4ccncc4)cc3)c3cncc(Cl)c32)C1 [BCD-BTK-125, (R)-1-(1-acryloylpiperidin-3-yl)-7-chloro-3-(4-(pyridin-4-yloxy)phenyl)-1H-pyrazolo[4,3-c]pyridine] |  |  | 27.1 | 4.18
5.35 | 8.57 | 5.47 |  |  | 8.3 | 1.5 | 0.2 | C=CC(=O)N1CCC[C@@H](n2nc(-c3ccc(C(=O)Nc4cc(C(F)(F)F)ccn4)cc3)c3c(N)ncc(Cl)c32)C1 [BCD-BTK-251, (R)-4-(1-(1-acryloylpiperidin-3-yl)-4-amino-7-chloro-1H-pyrazolo[4,3-c]pyridin-3-yl)-N-(4-(trifluoromethyl)pyridin-2-yl)benzamide] | > 50 | >13.70 |  | 
4.83 | 7.84 | 4.71 |  |  |  |  |  | C=CC(=O)N1CCC[C@@H](n2nc(-c3ccc(C(=O)Nc4cc(C(F)(F)CCC)ccn4)cc3)c3cncc(Cl)c32)C1 [BCD-BTK-252, (R)-4-(1-(1-acryloylpiperidin-3-yl)-7-chloro-1H-pyrazolo[4,3-c]pyridin-3-yl)-N-(4-(1,1-difluorobutyl)pyridin-2-yl)benzamide] | > 100 | >22.43 |  | 
4.77 | 8.93 | 5.05 |  |  | 8.2 | 9.2 | 1.1 | C=CC(=O)N1CCC[C@@H](n2nc(-c3ccc(C(=O)Nc4ccccn4)cc3)c3c(N)ncc(C#N)c32)C1 [BCD-BTK-234, (R)-4-(1-(1-acryloylpiperidin-3-yl)-4-amino-7-cyano-1H-pyrazolo[4,3-c]pyridin-3-yl)-N-(pyridine-2-yl)benzamide] | 36.6 | 3.81 |  | 
4.84 | 7.98 | 4.83 |  |  | 26.5 | 2.68 | 0.1 | C=CC(=O)N1CCC[C@@H](n2nc(-c3ccc(Oc4cccnc4C#N)cc3)c3cncc(F)c32)C1 [BCD-BTK-230, (R)-3-(4-(1-(1-acryloylpiperidin-3-yl)-7-fluoro-1H-pyrazolo[4,3-c]pyridin-3-yl)phenoxy)picolinonitrile] | 57.6 | 5.87 |  | 
4.98 | 8.65 | 5.70 |  |  | 18.2 | 11.1 | 0.61 | C=CC(=O)N1CCC[C@@H](n2nc(-c3ccc(C(=O)Nc4ccccn4)cc3)c3c(N)ncc(OC)c32)C1 [BCD-BTK-240, (R)-4-(1-(1-acryloylpiperidin-3-yl)-4-amino-7-methoxy-1H-pyrazolo[4,3-c]pyridin-3-yl)-N-(pyridin-2-yl)benzamide] | > 100 | >7.11 |  | 
 |  |  | 4.68 | 9.07 | 52.2 | 5.7 | 0.1 | C=CC(=O)N1CCC[C@@H](n2nc(-c3ccc(Oc4ccncc4)cc3)c3c(N)ncc(Cl)c32)C1 [BCD-BTK-139, (R)-1-(1-acryloylpiperidin-3-yl)-7-chloro-3-(4-(pyridin-4-yloxy)phenyl)-1H-pyrazolo[4,3-c]pyridin-4-amine] |  |  | 39.6 | 3.88
4.85 | 7.27 | 5.02 |  |  |  |  |  | C=CC(=O)N1CCC[C@@H](n2nc(-c3ccc(Oc4cccnc4C(N)=O)cc3)c3cncc(Cl)c32)C1 [BCD-BTK-220, 3-(4-{7-chloro-1-[(3R)-1-(prop-2-enoyl)piperidin-3-yl]-1H-pyrazolo[4,3-c]pyridin-3-yl}phenoxy)pyridine-2-carboxamide] | > 50 | >9.51 |  | 
4.80 | 8.62 | 5.09 |  |  |  |  |  | C=CC(=O)N1CCC[C@@H](n2nc(-c3ccc(Oc4ccncc4)cc3)c3c(N)ncc(OC)c32)C1 [BCD-BTK-239, (R)-1-(1-acryloylpiperidin-3-yl)-4-amine-7-methoxy-3-(4-(pyridin-4-yloxy)phenyl)-1H-pyrazolo[4,3-c]pyridine] | 60.2 | 4.24 |  | 
4.90 | 7.13 | 5.05 |  |  | 20.3 | 1.91 |  | C=CC(=O)N1CCC[C@@H](n2nc(-c3ccc(Oc4ccncc4C#N)cc3)c3cncc(Cl)c32)C1 [BCD-BTK-202, (R)-4-(4-(1-(1-acryloylpiperidin-3-yl)-7-chloro-1H-pyrazolo[4,3-c]pyridin-3-yl)phenoxy)nicotinonitrile] | 32 | 4.10 |  | 
< 4.30 | 8.13 | 4.68 |  |  | 11.6 | 0.07 |  | C=CC(=O)N1CCC[C@@H](n2nc(-c3cnc(C(=O)Nc4cc(C(F)(F)CCC)ccn4)nc3)c3cncc(Cl)c32)C1 [BCD-BTK-292, (R)-5-(1-(1-acryloylpiperidin-3-yl)-7-chloro-1H-pyrazolo[4,3-c]pyridin-3-yl)-N-(4-(1,1-difluorobutyl)pyridin-2-yl)pyrimidine-2-carboxamide] | > 100 | >29.81 |  | 
